Source: publication PMC12263630 (Frontiers in Pharmacology, 2025)
Like-named read-outs stand apart in the source and are kept apart here.

Columns and labels:
human α2A adrenoceptor = target: T1, human α2A adrenoceptor (Homo sapiens, UniProt P08913); test: β-arrestin recruitment chemiluminescent assay (PathHunter), α2A; assay type: cell-based; conditions: α2AR, relative to UK-14304
T1 construct: expressed in transfected cells
T1 sequence (P08913 1-465): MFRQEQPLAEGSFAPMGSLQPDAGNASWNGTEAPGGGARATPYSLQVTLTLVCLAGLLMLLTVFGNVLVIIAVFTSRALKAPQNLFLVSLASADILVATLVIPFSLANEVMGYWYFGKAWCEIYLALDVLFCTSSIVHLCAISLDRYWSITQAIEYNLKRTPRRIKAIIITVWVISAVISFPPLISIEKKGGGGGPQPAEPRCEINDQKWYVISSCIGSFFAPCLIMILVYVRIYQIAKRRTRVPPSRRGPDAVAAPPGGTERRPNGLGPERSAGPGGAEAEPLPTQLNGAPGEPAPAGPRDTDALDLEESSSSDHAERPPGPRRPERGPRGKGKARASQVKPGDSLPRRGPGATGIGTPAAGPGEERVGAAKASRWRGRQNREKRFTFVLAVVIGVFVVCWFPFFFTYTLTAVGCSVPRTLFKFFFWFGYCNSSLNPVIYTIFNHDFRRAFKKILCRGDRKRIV
Description: (§1) PathHunter cell lines were expanded from freezer stocks according to standard procedures. Cells were seeded in a total volume of 20 μL into white walled, 384-well microplates and incubated at 37°C for the appropriate time prior to testing. Intermediate dilution of sample stocks was performed to generate 5X sample in assay buffer. […] Vehicle concentration was 1%. […] Microplates were read following signal generation with a PerkinElmer Envision™ instrument for chemiluminescent signal detection.

human α2C adrenoceptor = target: T2, human α2C adrenoceptor (Homo sapiens, UniProt P18825); test: β-arrestin recruitment chemiluminescent assay (PathHunter), α2C; assay type: cell-based; conditions: α2CR; for Max activity: relative to UK-14304
T2 construct: expressed in transfected cells
T2 sequence (P18825 1-462): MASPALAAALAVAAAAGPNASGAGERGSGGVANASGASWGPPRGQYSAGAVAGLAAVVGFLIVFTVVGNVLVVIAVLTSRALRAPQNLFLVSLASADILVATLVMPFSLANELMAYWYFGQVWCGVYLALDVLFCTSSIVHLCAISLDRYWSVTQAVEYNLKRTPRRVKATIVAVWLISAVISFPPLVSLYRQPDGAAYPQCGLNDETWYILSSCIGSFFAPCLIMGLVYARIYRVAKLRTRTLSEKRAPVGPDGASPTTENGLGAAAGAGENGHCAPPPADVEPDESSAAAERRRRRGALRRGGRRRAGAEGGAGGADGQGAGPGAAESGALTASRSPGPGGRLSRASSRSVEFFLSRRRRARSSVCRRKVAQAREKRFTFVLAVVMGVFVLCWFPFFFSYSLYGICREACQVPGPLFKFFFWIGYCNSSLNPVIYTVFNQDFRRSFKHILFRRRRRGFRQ
Description: as §1

[1] = target: T3, human α2A adrenergic receptor (Homo sapiens, UniProt P08913); test: [35S]GTPγS binding assay, α2A; assay type: biochemical; conditions: α2AR; relative to maximal response of UK-14304
T3 construct: expressed in transfected cells; host or cells: Chem-1 (rat hematopoietic cell line), membranes
T3 sequence (P08913 1-465): T1 sequence (P08913 1-465)
Description: (§2) Cells were transfected with constructs encoding either human α2A (Chem-1, rat hematopoietic cell line), or α2B or α2C (Cho-K1, Chinese hamster ovary cell line) adrenergic receptors. Each test compound was prepared in DMSO at 10 mM and diluted to indicated concentrations in the incubation buffer (20 mM HEPES, 100 mM NaCl, 10 mM MgCl2, 1 mM DTT, 1 mM EDTA, pH 7.4.
(§3) Binding data were generated as duplicates. […] Three parameter logistic equations were fitted to the data to obtain EC50 and Emax values.

[2] = target: T4, human α2C adrenergic receptor (Homo sapiens, UniProt P18825); test: [35S]GTPγS binding assay, α2C; assay type: biochemical; conditions: for Max activity / EC50: α2CR; for Max activity: relative to maximal response of UK-14304; for EC50: [35S]GTPγS binding
T4 sequence (P18825 1-462): T2 sequence (P18825 1-462)
Description: as §2, §3

[3] = target: T5, human α2B adrenergic receptor (Homo sapiens, UniProt P18089); test: biochemical
T5 sequence (P18089 1-450): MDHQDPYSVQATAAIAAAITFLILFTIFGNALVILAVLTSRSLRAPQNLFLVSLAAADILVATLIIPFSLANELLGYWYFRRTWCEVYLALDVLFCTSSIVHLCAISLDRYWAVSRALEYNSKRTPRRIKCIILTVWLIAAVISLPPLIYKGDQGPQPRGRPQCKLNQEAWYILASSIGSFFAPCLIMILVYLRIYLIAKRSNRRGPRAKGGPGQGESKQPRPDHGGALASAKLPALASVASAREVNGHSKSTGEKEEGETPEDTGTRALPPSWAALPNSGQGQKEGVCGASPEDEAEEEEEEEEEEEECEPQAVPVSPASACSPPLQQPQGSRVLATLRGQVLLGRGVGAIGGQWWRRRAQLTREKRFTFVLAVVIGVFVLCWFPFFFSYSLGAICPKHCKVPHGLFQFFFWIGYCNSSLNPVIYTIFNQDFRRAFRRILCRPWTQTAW
Description: as §2, §3

in vivo = conditions: male, Sprague Dawley, rat
Description: Male Sprague Dawley (SD) rats, 200–250 g, purchased from Charles River Laboratories (South San Francisco, CA) were used for microdialyses studies. Upon arrival, rats were group-housed in polycarbonate cages (2-3 rats per cage) and acclimated for at least 7 days prior to commencing the studies. […] Rats were tracked via unique identifying numbers.
Ten male SD rats with a jugular vein (JV) cannula were used in this study. Rats were anesthetized using isoflurane (2%, 800 mL/min O2). Bupivacaine was used for local anesthesia and carprofen for peri-/post-operative analgesia. Animals were placed in a stereotaxic frame (Kopf instruments, United States) and MetaQuant microdialysis probes (PAN membrane, BrainLink, Netherlands) were implanted into the prefrontal cortex (PFC), 4 mm exposed surface. Coordinates for the tips of the probes for the PFC are: antero-posterior (AP) = +3.4 mm from bregma, lateral (L) = −0.8 mm from midline and ventral (V) = −5.0 mm from dura, the toothbar set at −3.3 mm. […] The microdialysis probes were connected with flexible PEEK tubing to a microperfusion pump (Harvard PHD 2000 Syringe pump, Holliston, MA). […] Microdialysis samples were collected for 30 min periods by an automated fraction collector (820 Microsampler, Univentor, Malta) into 300 µL polypropylene mini-vials. […]

[4] = test system: stress-induced immobility after repeated stress; test: Open space swim test; conditions: for time spent in the periphery, change vs vehicle controls / mean duration of immobility, change vs vehicle controls / mean distance travelled, change vs vehicle controls: Day 8, 40 μg/kg i.p. acute; for time spent in the periphery, change vs vehicle controls: p < 0.001
human α2B adrenoceptor = human α2B adrenoceptor (Homo sapiens, UniProt P18089); test: cell-based
Description: as §1

[5] = assumed for free plasma calculation; ref Bol et al., 1997; cited from earlier work
[6] = test system: stress-induced immobility; test: Forced swim test; assay type: in vivo, SD rats; conditions: versus vehicle; for immobility time: 60 min prior
Description: A total of 78 male SD rats (9–10 weeks old) were procured from Hylasco Biotechnology Pvt. Ltd., Hyderabad, India and were divided into seven groups (9–12 animals per group). Animals were housed in an environmentally controlled room at 22°C ± 3°C and relative humidity of 30–70 percent. Adequate fresh air supply of 12–15 air changes/hour was maintained. The temperature was maintained at 20°C–23°C. […] The lights of the acclimatization area were switched off at 06:00 p.m. Two rats per cage were housed in sterilized suspended standard, polysulfone cages, (Size: approximately L425 x B266 x H185 mm), with stainless steel top grills having facilities for holding pelleted food and drinking water in polycarbonate bottles with stainless steel sipper tubes. During the study period animals were housed in a single room. Animals received food and water ad libitum.
The test was carried out in transparent cylindrical glass containers measuring 46 cm in height and 20 cm in diameter. The containers were filled with water (23°C–25 °C) to a depth of 30 cm. Clean drying cages, heat lamps and heat pads were used for the animals that have finished the procedure to avoid hypothermia. The test was carried out in Dark Phase. […] A red bulb of 50 W was used for observation during Swim 1 and Swim 2 procedure. Swim 1 was carried out between 18:30 to 21:30 and Swim 2 was carried out between 19:30 to 21:30.
On test day, animals were dosed intramuscularly with respective treatment 60 min prior to performing FST. […] In swim 2, the first 1-min data was excluded from analysis and the remaining 5 min data was considered.
Rats were placed in the water-filled cylinder for 6 min during Swim 2. […] A rat was judged to be immobile when it remained floating in the water without struggling and was making only those movements necessary to keep its head above water. […] Water was changed after every session to avoid any influence on the next rat. […] The rats were placed in a swim chamber and behaviors were measured for 5 min on test day. Data was presented as total immobility time (in seconds) over the 5-min trial.

sleep onset latency = test system: sleep onset latency
Excerpt: Chow and water were provided ad libitum for the duration of the study.

memory consolidation = test: Cued fear conditioning test; conditions: 10 and 20 μg/kg, 30 min before conditioning
Description: Rats were housed 1 animal per cage in sterilized solid bottom polycarbonate cages (Dimensions 42.5 cm [L] X 26.5 cm [W] X 18.5 cm [H]) with stainless steel grill tops, facilitate for food and water bottle, and bedding of corncob husk.
Rodent fear conditioning chambers (L x W x H, rat: 26 × 30 × 33 cm, Coulbourn instruments. United States) placed in sound attenuating cabinets were used. Stainless steel grid floors (L x W, rat: 26 × 30 cm), connected to shock scramblers were used to deliver the shock. A ventilation fan provided a background noise of 60 dB. A light bulb (centered on the right wall, and 27 cm above the floor of the chamber) provided ambient illumination. Experiments were recorded using video camera, mounted on the cabinet ceiling and images were analyzed with freeze frame 3 software (V3.2.1). The fear conditioning chambers have transparent acrylic panels. All experimentations were carried out in a single fear conditioning chamber.
On day 0, animals were randomized into eight groups based on their body weight.
Session-I: On day 1 (N = 5), rats were brought to the laboratory at least 1 h prior to experimentation. […]
On day 2, rats were brought to the laboratory at least 1 h prior to experimentation. […] The freezing behavior of the animals was recorded for 6 min (starting from the time the animal placed in the fear conditioning chamber). […]

motor coordination = test: Rotarod test; conditions: 4 mg/kg i.p., 30 min before test; p < 0.01
Description: 75 male Swiss mice (6 weeks old, 29–41 g body weight range at the beginning of the experiment) were supplied by Janvier Labs (Le Genest St Isle, France). […] Environmental enrichment such as gnawing and nesting material was provided.
On Day 0, mice were submitted to two training trials separated by a 5-min interval. For each trial, mice were placed on a rod (diameter: 7 cm) rotating at a speed of 18 revolutions per minute for a 3-min period. On Day 1, a final training was performed in the morning (at least 2 h before the drug testing). On Day 1, the test session was performed at least 2 h after the habituation period (in the afternoon) and mice were placed on the rod for a maximum period of 3 min. The latency to fall off the rod was recorded. Data was analyzed by using one-way ANOVA followed by Dunnett’s comparisons test.75 male Swiss mice (6 weeks old, 29–41 g) were allocated into five groups (10–15 animals per group).

CCK-4 induced anxiety = test: CCK-4 elevated plus maze test
Description: 48 male Wistar rats were supplied by Janvier (Le Genest St Isle, France) for this study. They were purchased at a body weight of 150 g and reached a body weight of about 270 g at the time of use.
In the present study, 12 animals per group were used. The apparatus is a PVC maze covered with Plexiglas and subdivided into four equal exploratory arms (40 × 10 cm), which are all interconnected by a small platform (10 × 10 cm). The apparatus is placed 65 cm above the floor. Two arms are open, and two others are closed with transparent wall (high: 10 cm).
After compound administration, a rat is placed on the platform opposite a closed arm. The number of entries and the time spent on each arm are recorded during a 5 min period. The animal is considered as entered in an arm when it places its four paws in the arm. The apparatus was cleaned between each animal using alcohol (70%). Urine and feces were removed from the maze. Data were analyzed by One way ANOVA followed by Dunnett’s comparisons test. CCK-4 (0.2 mg/kg) was administered intraperitoneally in the Wistar rats 30 min prior to the test. […] 60 min prior to the study (30 min prior to CCK-4 administration). Diazepam (1 mg/kg) was administered 30 min prior to study (at the time of CCK-4 administration). After the administration of compounds, rats were placed on the platform opposite a closed arm in the elevated plus maze. The number of entries and the time spent in each arm were recorded during a 5 min period. The animal was considered as entered in an arm when it placed its four paws in the arm.

[7] = daily i.p. Day 8 to Day 32, 40 μg/kg, p < 0.0001

## Clc1cccc(Cl)c1N=C1NCCN1 [Clonidine]
Human α2A adrenoceptor
  Max activity: 93%
Human α2C adrenoceptor
  Max activity: 8%
[1]
  Max activity: 76%
[2]; in words, repeated in two assay systems
  intrinsic activity at the α2C-AR: very low intrinsic activity
[2]
  Max activity: 32%

## Cc1cccc([C@H](C)c2cnc[nH]2)c1C [Dexmedetomidine]
[3]
  EC50: 2.8 nM
  Max activity: 147%
In vivo
  Tmax: 30 to 60 min
Human α2A adrenoceptor
  Max activity: 101%
Human α2C adrenoceptor
  EC50: 24 nM
  Max activity: 95%
[4]; first treated group
  time spent in the periphery, change vs vehicle controls: +159%
[4]; first treated group, p < 0.01
  mean duration of immobility, change vs vehicle controls: −43%
[4]; first treated group, p < 0.05
  mean distance travelled, change vs vehicle controls: +31%
[4]; second treated group
  time spent in the periphery, change vs vehicle controls: +138%
[4]; second treated group, p < 0.01
  mean distance travelled, change vs vehicle controls: +36%
  mean duration of immobility, change vs vehicle controls: −36%
[4]; [7]
  mean distance travelled over the testing period: increased
  mean duration of immobility over the testing period: decreased
  time spent in the periphery over the testing period: increased
Human α2B adrenoceptor
  EC50: 0.6 nM
  Max activity: 106%
[5]
  bound to plasma proteins: 84%
[6]; 1 μg/kg intramuscular, p = 0.0238
  immobility time: significantly decreased
[6]; 5 μg/kg intramuscular, p < 0.0001
  immobility time: significantly decreased
Sleep onset latency; 5 μg/kg intramuscular
  onset of SWS: significantly reduced
Sleep onset latency; 20 μg/kg intramuscular
  onset of SWS: significantly reduced
[1]
  Max activity: 89%
Memory consolidation
  memory formation (duration of freezing): did not impair memory formation
[2]
  EC50: 14 nM
  Max activity: 110%

## CN1C(=O)CN=C(c2ccccc2)c2cc(Cl)ccc21 [Diazepam]
Motor coordination
  latency to fall-off, change vs vehicle controls: −60%
CCK-4 induced anxiety; 1 mg/kg, 30 min prior, with CCK-4
  effects in elevated plus maze, positive control: exceeded those measured in vehicle animals

## N=C(N)NC(=O)Cc1c(Cl)cccc1Cl [Guanfacine]
Human α2A adrenoceptor
  Max activity: 100%
Human α2C adrenoceptor
  Max activity: 68%
[1]
  Max activity: 78%
[2]
  Max activity: 72%

## CC(Oc1c(Cl)cccc1Cl)C1=NCCN1 (centres unmarked) [Lofexidine]
[3]
  EC50: 43 nM
[3]; α2BR, relative to maximal response of UK-14304
  Max activity: 97%
[2]
  EC50: 23 nM
  Max activity: 50%

## CN(C)CCCN1c2ccccc2CCc2ccccc21 [imipramine]
[6]; 30 mg/kg
  immobility time, positive control: p = 0.0002 versus vehicle

## Cholecystokinin tetrapeptide [CCK-4]
CCK-4 induced anxiety; CCK-4 0.2 mg/kg i.p. alone, vehicle 4.3
  number of entries in the open arms: 1.3
CCK-4 induced anxiety; CCK-4 0.2 mg/kg i.p. alone, vehicle 45 s
  time spent in the open arms: 6 s
